Measured values from patent publication US20230132256A1, “COMBINATION THERAPY” (ADC THERAPEUTICS SA, priority 2018, published 2023).

System: CT26 syngeneic model (subcutaneous CT26 tumors)
Test: In vivo efficacy study testing combination of sur301 (sADC×25) with gemcitabine in the CT26 syngeneic model
Set-up: species or system female BALB/c mice
Settings: Gemcitabine 80 mg/kg i.p. q3d×4 (Days 1, 4, 7, 10), single agent, animals of n=10/group
Experimental: On the day of implant, cultured CT26 cells were harvested during log phase growth and resuspended in PBS at a concentration of 3×10^6 cells/mL. Tumors were initiated by subcutaneously implanting 3×10^5 CT26 cells (0.1 mL suspension) into the right flank of each test animal. Tumors were monitored as their volumes approached the target range of 80-120 mm^3. Tumor were measured in two dimensions using calipers, and volume was calculated using the formula:
Tumor Volume (mm^3)=w2×l/2
where w=width and l=length, in mm, of the tumor. Tumor weight may be estimated with the assumption that 1 mg is equivalent to 1 mm3 of tumor volume.
Fifteen days after tumor cell implantation, on Day 1 of the study, animals were sorted into groups (n=10/group) with individual tumor volumes of 75 to 144 mm^3, and group mean tumor volumes of 104-106 mm^3.
All doses were administered intraperitoneally (i.p.). The dosing volume was 0.2 mL per 20 grams of body weight (10 mL/kg), and was scaled to the body weight of each individual animal.
Gemcitabine was administered at 80 mg/kg q3d×4 which corresponded to Days 1, 4, 7 and 10.
The antibody component of ADC×25 specifically binds human CD25. […]
Tumors were measured using calipers twice per week, and each animal was euthanized when its tumor reached the endpoint volume of 2000 mm^3 or at the end of the study (Day 56), whichever came first.
Response Table Criteria: • Treatment may cause partial regression (PR) or complete regression (CR) of the tumor in an animal. • In a PR response, the tumor volume is 50% or less of its Day 1 volume for three consecutive measurements during the course of the study, and equal to or greater than 13.5 mm3 for one or more of these three measurements. • In a CR response, the tumor volume is less than 13.5 mm3 for three consecutive measurements during the study. • Any animal with a CR response at the end of the study was additionally classified as a tumor-free survivor (TFS). • Animals were scored only once during the study for a PR or CR event and only as CR if both PR and CR criteria were satisfied. […]

Nc1ccn([C@@H]2O[C@H](CO)[C@@H](O)C2(F)F)c(=O)n1 [Gemcitabine]
0: CR (complete regression) | PR (partial regression) | TFS (tumor-free survivor) (end of study Day 56)
